Consider one compound from patent US11382907B2, “Methods and compositions for treating aging-associated impairments using CCR3-inhibitors” (Alkahest, Inc., priority 2017, dated 2022).

Series [1] has as its system two-month-old C57Bl/6 mice treated with rmCCL11. As to the kind of experiment: Open Field test in young mice given recombinant mouse CCL11. As to conditions: 2-month-old mice; rmCCL11 i.p.; Compound 1 30 mg/kg p.o. b.i.d., 2 weeks. The format is in vivo. Here is the method: Open Field is used to evaluate general locomotor activity and exploratory behavior in a novel environment. Mice are brought to the experimental room for at least 30 min for acclimation to the experimental room conditions (dim lighting) prior to testing. The testing arena consists of a 50 cm×50 cm square arena. Mice are placed in the center of an arena and tracked for 15 minutes. Time spent in the peripheral and centers zones is analyzed, along with rearing behavior. 70% ethanol is used to clean all surfaces between trials.
[…] During the last week of treatment, mice were subjected to behavior testing prior to perfusion on the last day of treatment. All mice received 5 consecutive days of BrdU injection at 150 mg/kg IP immediately prior to treatment start. […]

The next series deals with aged C57Bl/6 mice. As to the kind of experiment: Y-maze test in aged mice. The format is in vivo. The procedure: A large Y-maze test assesses short-term memory of the familiarity of a specific context. Mice are brought to the experimental room for at least 30 min of acclimation to the experimental room conditions (dim lighting) prior to testing. For the initial training trial, the mouse is placed at the end of one arm of a large Y-maze designated “start arm” (arm length: 15 inches). The third arm of the maze is blocked off, allowing the mouse to explore two of the three arms freely (“start arm” and “familiar arm”) for 5 min. Each arm contains spatial cues. One hour later, the mouse is placed back into the maze in the “start arm” and allowed to explore all three arms with the third arm unblocked (“novel arm”). Movements in and out of each arm are tracked using automated tracking software (CleverSys). Testing is performed under dim lighting, and the apparatus is cleaned with 70% ethanol between trials.
Two-month-old or 18-month-old C57Bl/6 mice were dosed with either IgG antibody control by IP injection or Compound 1 subcutaneously by Alzet osmotic pump for either 2 or 4 weeks. During the last week of treatment, mice were subjected to behavior testing prior to perfusion on the last day of treatment. All mice received 5 consecutive days of BrdU injection at 150 mg/kg IP immediately prior to treatment start.
Three-month-old or 16.5-month-old C57Bl/6 mice were dosed with either vehicle control or Compound 1 subcutaneously by Alzet osmotic pump for 4 weeks. During the last week of treatment, mice were subjected to behavior testing prior to perfusion on the last day of treatment. All mice received 5 consecutive days of BrdU injection at 150 mg/kg IP immediately prior to treatment start.
23-month-old C57Bl/6 mice were dosed with either vehicle control or Compound 1 by oral gavage twice daily for 19 days. After 11 days of treatment, mice were subjected to Y maze testing.
23-month-old C57Bl/6 mice were dosed with either vehicle control or Compound 1 subcutaneously twice daily for 21 days. Three weeks later, mice were subjected to behavior testing, and sacrificed the day following the last behavior test.

In the next series the test system is IL-1beta mRNA. As to the kind of experiment: qPCR of IL-1beta mRNA in cortical brain tissue of mice given daily LPS. As to conditions: 3-month-old mice, daily LPS IP 7 weeks, 30 mg/kg PO BID 4 weeks. Type of series: in vivo, C57Bl/6 mice. The source says:
Snap-frozen hemibrains were dissected out into cortex, hippocampus, striatum, and thalamus. The cortex was split into three homogeneous parts and one part was used for RNA isolation. RNA was isolated using the Prolink RNA Mini Kit (Thermo Fisher Scientific #12183025). cDNA was made using Taqman RT Kit (Thermo Fisher Sci #N8080234). qPCR was run on a Quant Studio 6 using custom made Taqman Multiplex Primers for IL-1beta and GAPDH. All samples were run together on a single plate and analyzed for ddCT relative to their endogenous control first and then relative to the control group.
Three-month-old C57 mice were given daily doses of lipopolysaccharide (LPS) 0.5 mg/kg IP to induce inflammation and treated with Compound 1 for up to 4 weeks. […]
(In general: Quantitative PCR measures a nucleic acid by following its amplification.)

Series [2] can be described thus: Compound cerebrospinal fluid levels in mice (mass spectroscopy). As to conditions: for concentration at 4 weeks: C57BL/6, mouse, cerebrospinal fluid, subcutaneous, 16.5-month-old old group, read-out: level of Compound 1 in CSF. Type of series: in vivo, C57BL/6 mice. The procedure:
Compound levels were measured by MS/MS by Quintara (Hayward, Calif.).
Cerebrospinal fluid (CSF) from both the 2-month-old “young” and 16.5-month-old “old” groups was collected and levels of Compound 1 were determined by mass spectroscopy. FIG. 6 depicts the levels of the compound of the invention that were detected in mouse CSF for both the young and old groups (both below 10 nM).

[3] abbreviates: 23-month-old mice, 30 mg/kg SQ BID 21 days, tested three weeks later.
Setting [4] is: 23-month-old mice, 30 mg/kg oral gavage BID, tested after 11 days.

Like-named read-outs stand apart in the source and are kept apart here.

For the compound `Cc1cc(C(=O)N(C)C)cc(NC(=O)[C@H]2CCC(=O)N2C2CCN(Cc3ccc(Cl)c(C)c3)CC2)n1` [Compound 1], the “anxiety in the Open Field” value in series [1] is “improved anxiety”. For the same compound, in the series with aged C57Bl/6 mice (16.5-month-old mice, four-week subcutaneous dosing by pump), the “cognitive performance in the cued Y-maze” value is “improved cognitive performance”. In addition, the “performance in the cued Y-maze” value in the series on aged C57Bl/6 mice (18-month-old mice, low or high infusion for 2 or 4 weeks) is given as “improvement in the cued Y-maze”. In addition, in the series with aged C57Bl/6 mice (setting [3]), the “Y-maze duration of time spent in the novel arm” value was “exhibited intact memory for the novel arm”, the “Y-maze number of visits to the novel arm” value is “exhibited intact memory for the novel arm”, the “memory in the Y-maze” value is given as “significantly improved memory” and the “velocity during the Y-maze test” value is given as “significantly increased the velocity”. Further, in the series on aged C57Bl/6 mice (setting [4]), the “Y-maze number of visits to the novel arm” value is “exhibited intact memory for the novel arm”, the “distance travelled during the Y-maze test” value is reported as “significantly increased the distance travelled” and the “memory in the Y-maze” value is listed as “significantly improved memory”. For the same compound, in the series on IL-1beta mRNA, the “IL-1beta mRNA level in brain” value is “significant decrease in IL-1beta expression”. The concentration at 4 weeks in series [2] (50 mg/mL solution infused at 0.5 μL/hour by Alzet mini-pump, mass spectroscopy) was < 10 nM. Also, the concentration at 4 weeks in series [2] (mass spectroscopy) is < 10 nM. Moreover, the “difference in BBB penetration between young and old mice” value in series [2] (mouse, in vivo) is “no difference in BBB penetration between young and old mice”. The “crossing of the blood-brain barrier (CSF levels versus Ki)” value in series [2] (young and old mice) is on record as “do not cross the blood-brain barrier (BBB) in significant concentrations”. For the same compound, the “level of Compound 1 in CSF” value in series [2] (young group, mass spectroscopy) is “below 10 nM”.
